For one data set, the system named is Saccharomyces cerevisiae. Nature of the data set: MIC in vitro (Table VIII). The following applies: for MIC: Saccharomyces cerevisiae, pH 7.4, read-out: Minimum Inhibitory Concentration - MIC.
In the next data set the test system is Streptococcus pyogenes 6. As to the kind of experiment: MIC in vitro (Table VIII). The following applies: for MIC: pH 7.4, read-out: Minimum Inhibitory Concentration - MIC.
The next data set deals with Escherichia coli Sc. As to the kind of experiment: MIC in vitro (Table VIII). The following applies: for MIC: pH 7.4, read-out: Minimum Inhibitory Concentration - MIC.
Data set [1] relates to Streptococcus pyogenes C. Nature of the data set: MIC in vitro (Table VIII). The following applies: for MIC: pH 7.4, read-out: Minimum Inhibitory Concentration - MIC.
In the next data set the test system is Candida albicans 406. As to the kind of experiment: MIC in vitro (Table VIII). To be noted: for MIC: pH 7.4, read-out: Minimum Inhibitory Concentration - MIC.
The test system of data set [2] is Staphylococcus aureus ATCC 6538P. As to the kind of experiment: disc plate assay (microbiological assay). The class given is cell-based.
The test system of data set [3] is Pseudomonas aeruginosa Miller. Nature of the data set: MIC in vitro (Table VIII). The following applies: for MIC: pH 7.4, read-out: Minimum Inhibitory Concentration - MIC.
In the next data set the test system is Aerobacter aerogenes 4. Nature of the data set: MIC in vitro (Table VIII). To be noted: for MIC: pH 7.4, read-out: Minimum Inhibitory Concentration - MIC.
The test system of data set [4] is Klebsiella pneumoniae 17 KR. Nature of the data set: MIC in vitro (Table VIII). To be noted: for MIC: pH 7.4, read-out: Minimum Inhibitory Concentration - MIC.
For data set [5], the system named is Klebsiella pneumoniae Ad KR. Nature of the data set: MIC in vitro (Table VIII). The following applies: for MIC: pH 7.4, read-out: Minimum Inhibitory Concentration - MIC.
A further data set deals with Proteus mirabilis MeF. Nature of the data set: MIC in vitro (Table VIII). To be noted: for MIC: pH 7.4, read-out: Minimum Inhibitory Concentration - MIC.
Data set [6] has as its system Pseudomonas aeruginosa 8689. As to the kind of experiment: MIC in vitro (Table VIII). The following applies: for MIC: pH 7.4, read-out: Minimum Inhibitory Concentration - MIC.
In another data set the test system is Escherichia coli 5. As to the kind of experiment: MIC in vitro (Table VIII). The following applies: for MIC: pH 7.4, read-out: Minimum Inhibitory Concentration - MIC.
The next data set relates to Candida albicans 411. Nature of the data set: MIC in vitro (Table VIII). To be noted: for MIC: pH 7.4, read-out: Minimum Inhibitory Concentration - MIC.
A further data set has as its system Aerobacter aerogenes 3. Nature of the data set: MIC in vitro (Table VIII).
The test system of the next data set is Proteus vulgaris 2. Nature of the data set: MIC in vitro (Table VIII). To be noted: for MIC: pH 7.4, read-out: Minimum Inhibitory Concentration - MIC.
The test system of the next data set is Salmonella paratyphi B1. As to the kind of experiment: MIC in vitro (Table VIII). To be noted: for MIC: pH 7.4, read-out: Minimum Inhibitory Concentration - MIC.
Another data set has as its system Escherichia coli 19. Nature of the data set: MIC in vitro (Table VIII). The following applies: for MIC: pH 7.4, read-out: Minimum Inhibitory Concentration - MIC.
For a further data set, the system named is Candida albicans 401. Nature of the data set: MIC in vitro (Table VIII). To be noted: for MIC: pH 7.4, read-out: Minimum Inhibitory Concentration - MIC.
The next data set deals with Salmonella paratyphi B2. As to the kind of experiment: MIC in vitro (Table VIII). The following applies: for MIC: pH 7.4, read-out: Minimum Inhibitory Concentration - MIC.
Data set [7] deals with kanamycin resistant bacteria. The class given is cell-based.
The test system of data set [8] is gram positive and gram-negative bacteria. The class given is cell-based.
The test system of the next data set is yeast. The class given is cell-based.
The subject of data set [9] is gram-positive and gram-negative organisms. The arrangement: species or system mice. The following applies: mouse.
A further data set deals with bacteria. The class given is cell-based.
In the next data set the test system is Escherichia coli 10536. Also on record: species or system mice. To be noted: mouse, in vivo, sc.
The test system of data set [10] is Pseudomonas aeruginosa 8689. Also on record: species or system mice. To be noted: mouse, in vivo, sc.
Data set [11] relates to Staphylococcus aureus Gray. Also on record: species or system mice. The following applies: mouse, in vivo, sc.
The subject of data set [12] is Streptococcus pyogenes C. Also on record: species or system mice. The following applies: mouse, in vivo, sc.
Data set [13] relates to Staphylococcus aureus 209P. Nature of the data set: MIC in vitro (Table VIII). To be noted: 24 hours; yeast beef broth (pH 7.4).
[14] abbreviates: 24 hours, yeast beef broth (pH 7.4).
[15] abbreviates: 24 hours, yeast beef broth (pH 7.4), kanamycin-resistant.

Counter-ions that a name gives are not always drawn. Like-named read-outs stand apart in the source and are kept apart here.

Consider `CN[C@@H]1[C@@H](O)[C@@H](O[C@@H]2[C@@H](O)[C@H](O[C@H]3OC(C(C)N)=CC[C@H]3N)[C@@H](N)C[C@H]2N)OC[C@]1(C)O` (stereo partly shown) [Verdamicin I Sulfate], for which the MIC was > 10 µg/mL with Saccharomyces cerevisiae (24 h); > 10 µg/mL with Saccharomyces cerevisiae (48 h); 0.3 µg/mL in the data set on Streptococcus pyogenes 6 (24 h); 0.75 µg/mL in the data set with Streptococcus pyogenes 6 (48 h); 0.3 µg/mL in the data set on Escherichia coli Sc (24 h); 0.75 µg/mL in the data set on Escherichia coli Sc (48 h). The MIC was 0.75 µg/mL with Streptococcus pyogenes C [1] (24 h); 3 µg/mL with Streptococcus pyogenes C [1] (48 h); > 10 µg/mL in the data set on Candida albicans 406 (24 h); > 10 µg/mL in the data set with Candida albicans 406 (48 h); 0.75 µg/mL in data set [3] (24 h); 0.75 µg/mL in data set [3] (48 h). Further, the MIC (with Aerobacter aerogenes 4 (24 h); in the data set with Aerobacter aerogenes 4 (48 h); in data set [4] (24 h); in data set [4] (48 h); in data set [5] (24 h); in data set [5] (48 h)) was 0.3 µg/mL throughout. For the same molecule, the MIC came out at 0.3 µg/mL with Proteus mirabilis MeF (24 h); 0.3 µg/mL in the data set on Proteus mirabilis MeF (48 h); 0.075 µg/mL in data set [6] (24 h); 0.3 µg/mL in [6] (48 h); 0.3 µg/mL in the data set on Escherichia coli 5 (24 h); 0.75 µg/mL in the data set on Escherichia coli 5 (48 h). The MIC in the data set with Candida albicans 411 (24 h) was > 10 µg/mL; in the data set on Candida albicans 411 (48 h), > 10 µg/mL; with Aerobacter aerogenes 3 (24 h, pH 7.4, read-out: Minimum Inhibitory Concentration - MIC) it was 0.3 µg/mL; in the data set on Proteus vulgaris 2 (24 h), 0.3 µg/mL; in the data set with Proteus vulgaris 2 (48 h), 0.3 µg/mL; with Salmonella paratyphi B1 (24 h), 0.3 µg/mL. The MIC with Salmonella paratyphi B1 (48 h) is 0.75 µg/mL; in the data set with Escherichia coli 19 (24 h), 0.3 µg/mL; in the data set on Escherichia coli 19 (48 h), 0.3 µg/mL; in the data set with Candida albicans 401 (24 h), > 10 µg/mL; in the data set with Candida albicans 401 (48 h), > 10 µg/mL; in the data set on Salmonella paratyphi B2 (24 h), 0.3 µg/mL. In the data set with Salmonella paratyphi B2 (48 h), the MIC came to 0.3 µg/mL. Further, in data set [2] (gentamicin assay), the “assay potency in the gentamicin assay” value stood at 674 µg/mg.

For orientation: pKa means the negative logarithm of the acid dissociation constant. `CN[C@@H]1[C@@H](O)[C@@H](O[C@@H]2[C@@H](O)[C@H](O[C@H]3OC(C(C)N)=CC[C@H]3N)[C@@H](N)C[C@H]2N)OC[C@]1(C)O` (stereo partly shown) [Verdamicin I]: the “activity against kanamycin resistant bacteria” value in [7] was “active against kanamycin resistant bacteria”. In data set [2], the “assay potency in the gentamicin assay” value worked out at 1000 µg/mg and the dose response curve result was “parallel to that of gentamicin”. The pKa in the data set “physchem” stood at 8.1. Moreover, the “antibacterial activity in vitro” value in data set [8] is listed as “broad spectrum of antibacterial activity”. Moreover, the “in vitro activity against yeast” value in the data set with yeast is listed as “does not exhibit any substantial in vitro activity against yeast”. In addition, the “antibacterial activity in vivo” value in [9] was “potent antibacterial agent”. In addition, the “cross resistance with gentamicin” value in the data set on bacteria is “appears to be cross resistant with gentamicin”.

As for Gentamicin, the PD50 is recorded as 1.7 mg/kg in the data set on Escherichia coli 10536, 1.7 mg/kg in data set [10], 2.4 mg/kg in [11] and 5.0 mg/kg in the data set on Streptococcus pyogenes C [12].

As for Gentamicin Sulfate [reference compound], the “Minimum Inhibitory Concentration - MIC” value is > 50 µg/mL with Saccharomyces cerevisiae (setting [14]); 1.0 µg/mL in the data set on Streptococcus pyogenes 6 (setting [14]); 0.75 µg/mL in the data set with Escherichia coli Sc (setting [14]); 3.0 µg/mL in the data set on Streptococcus pyogenes C [1] (setting [14]); > 50 µg/mL in the data set on Candida albicans 406 (setting [14]); 0.5 µg/mL in data set [3] (setting [14]). Also, the “Minimum Inhibitory Concentration - MIC” value (in the data set with Aerobacter aerogenes 4 (setting [14]); in data set [4] (setting [15]); in data set [5] (setting [15]); in the data set with Proteus mirabilis MeF (setting [14]); in data set [6] (setting [14]); with Escherichia coli 5 (setting [14])) was 0.3 µg/mL throughout. The “Minimum Inhibitory Concentration - MIC” value in the data set on Candida albicans 411 (setting [14]) was > 50 µg/mL; with Aerobacter aerogenes 3 (setting [14]), 0.6 µg/mL; in data set [13], 0.1 µg/mL; in the data set on Proteus vulgaris 2 (setting [14]) it was 0.3 µg/mL; in the data set on Salmonella paratyphi B1 (setting [14]) it was 1.0 µg/mL; in the data set on Escherichia coli 19 (setting [14]), 0.3 µg/mL. The results for the “Minimum Inhibitory Concentration - MIC” value in the data set with Candida albicans 401 (setting [14]) and in the data set on Salmonella paratyphi B2 (setting [14]) were > 50 µg/mL and 0.5 µg/mL, respectively.

(Values after US3951746A, “Antibiotics and process for their manufacture” (Schering Corporation, priority 1975, dated 1976).)
